In patent US20080269213A1, “8-Hydroxyquinoline compounds and methods thereof” (Wyeth, priority 2006, published 2008):
Where two headings read alike, the source gives them in different places. Values belong to the molecule of their own block, whether it stands above or below them.

What was measured:
[1] = target: T1, Agg-1 (Homo sapiens, UniProt O75173); test: Agg-1 FRET assay; type: biochemical; details: for inhibition at 66.7 µM: % inhibition @ 66.7 μM
T1 sequence (O75173 213-837): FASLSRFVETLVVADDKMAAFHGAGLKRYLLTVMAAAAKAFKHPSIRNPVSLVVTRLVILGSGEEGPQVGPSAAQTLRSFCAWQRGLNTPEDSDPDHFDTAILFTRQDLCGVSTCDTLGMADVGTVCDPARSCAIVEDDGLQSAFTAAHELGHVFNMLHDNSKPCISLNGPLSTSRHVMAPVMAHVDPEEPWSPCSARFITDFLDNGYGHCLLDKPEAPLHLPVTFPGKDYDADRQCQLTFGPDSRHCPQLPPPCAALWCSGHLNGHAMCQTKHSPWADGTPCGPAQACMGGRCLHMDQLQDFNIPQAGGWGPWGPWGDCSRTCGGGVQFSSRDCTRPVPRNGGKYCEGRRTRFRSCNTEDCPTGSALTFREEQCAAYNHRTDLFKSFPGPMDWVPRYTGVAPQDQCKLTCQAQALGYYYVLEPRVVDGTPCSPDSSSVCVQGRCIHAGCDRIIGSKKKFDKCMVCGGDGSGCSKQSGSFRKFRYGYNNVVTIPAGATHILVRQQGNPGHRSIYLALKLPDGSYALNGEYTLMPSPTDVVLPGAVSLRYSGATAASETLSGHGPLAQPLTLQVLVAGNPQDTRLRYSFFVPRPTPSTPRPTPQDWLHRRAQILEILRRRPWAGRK
From the text: The Agg-1/Agg-2 FRET data for N-[(8-hydroxyquinolin-2-yl)(phenyl)methyl]-2-phenoxyacetamide and 2-{[(phenoxyacetyl)amino](phenyl)methyl}quinolin-8-yl phenoxyacetate is presented in Table 1.

[2] = target: T2, recombinant human Aggrecanase-2 Agg2-Phe628 (Homo sapiens, UniProt Q9UNA0); test: Aggrecanase 2 in vitro enzyme assay (Agg-2 FRET, quenched fluorescent peptide substrate); type: biochemical; parameters: purified recombinant human Aggrecanase-2 Agg2-Phe628 (MW=41,737); This is a truncated form of full-length human aggrecanase-2; made in house; host or cells: CHO cells
T2 sequence (Q9UNA0 262-628 limits assumed): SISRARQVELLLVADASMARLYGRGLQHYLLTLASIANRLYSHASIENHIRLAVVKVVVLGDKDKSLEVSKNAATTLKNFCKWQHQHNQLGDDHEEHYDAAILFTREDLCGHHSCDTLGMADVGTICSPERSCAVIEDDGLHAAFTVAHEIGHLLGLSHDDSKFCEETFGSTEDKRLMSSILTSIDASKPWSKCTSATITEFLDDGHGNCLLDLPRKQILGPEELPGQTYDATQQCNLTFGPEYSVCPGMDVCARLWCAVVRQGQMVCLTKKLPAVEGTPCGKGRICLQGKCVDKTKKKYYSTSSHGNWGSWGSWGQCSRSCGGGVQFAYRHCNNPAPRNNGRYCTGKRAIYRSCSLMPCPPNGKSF
Protocol: A continuous assay was used in which the substrate was a synthetic peptide containing a fluorescent group (o-aminobenzyl, Abz), which was quenched by energy transfer to a 2,4-dinitrophenyl group (Dnp). The buffer used in this assay was 50 mM HEPES, pH 7.5, 100 mM NaCl, 5 mM CaCl2, 0.1% CHAPS, 5% glycerol. The source of enzyme was purified recombinant human Aggrecanase-2 Agg2-Phe628 (MW=41,737). This is a truncated form of full-length human aggrecanase-2 that was expressed in CHO cells and purified. The final concentration of Agg2-Phe628 was 0.5 μg/ml. […] It is a synthetic peptide that is designed after a portion of brevican, one of the naturally occurring substrates of Aggrecanase-2, of the sequence Abz-[…]-Dap(Dnp)-KK—NH2 (mass=1740). The concentration of this substrate stock was spectrophotometrically determined using the extinction coefficient at 354 nm of 18,172 M^−1cm^−1. […] The final concentration of substrate in the assay was 25 μM.
Test compounds (in duplicate) were serially diluted from 2 mM to 0.01 μM in 100% DMSO. The total reaction volume was 100 μl. The buffer and enzyme were added first followed by addition of 10× inhibitor from the dilution plate. Enzyme and buffer alone samples were included in order to obtain the maximal rate of substrate cleavage. […] Then substrate was added, mixed and the reaction monitored for 40 min at 30° C. in kinetic mode using λex: 340 nm and % λem: 420 (GeminiXS Molecular Devices).

[3] = IC50, read-out: Agg-1 IC50 (μM) or % Inhibition
[4] = read-out: Agg-2 IC50 (μM) or % Inhibition
[5] = read-out: Agg-1 IC50 (μM) or % Inhibition
[6] = IC50, read-out: Agg-2 IC50 (μM) or % Inhibition
[7] = read-out: Agg-2 FRET Median IC50

IC50 [1, 3]: 2.1 µM
inhibition at 100 µM [2, 4]: 59%
Molecule: O=C(COc1ccccc1)NC(Cc1ccc2cccnc2c1O)c1ccccc1 (stereo not shown)

inhibition at 22 µM [1, 5]: 67%
IC50 [2, 6]: 9.6 µM
Molecule: O=C(COc1ccccc1)NC(Cc1cc(Cl)c2cccnc2c1O)c1ccc2c(c1)OCO2 (stereo not shown)

inhibition at 22 µM [1, 5]: 59%
inhibition at 22 µM [2, 4]: 50%
Molecule: O=C(NC(Cc1cc(Cl)c2cccnc2c1O)c1ccc(CN2CCOCC2)cc1)c1ccc(-c2ccccc2)cc1 (stereo not shown)

inhibition at 66.7 µM [1, 5]: 48%
inhibition at 22 µM [2, 4]: 56%
Molecule: Cc1ccc(-c2cccc(C(Cc3cc(Cl)c4cccnc4c3O)NC(=O)COCc3ccccc3)c2)s1 (stereo not shown)

inhibition at 66.7 µM [1, 5]: 47%
inhibition at 22 µM [2, 4]: 51%
Molecule: Cc1ccc(-c2cccc(C(Cc3cc(Cl)c4cccnc4c3O)NC(=O)C(C)(C)Oc3ccc(Cl)cc3)c2)s1 (stereo not shown)

inhibition at 66.7 µM [1, 5]: 42%
inhibition at 22 µM [2, 4]: 58%
Molecule: Cc1ccc(-c2cccc(C(Cc3cc(Cl)c4cccnc4c3O)NC(=O)COc3ccccc3)c2)s1 (stereo not shown)

inhibition at 22 µM [1, 5]: 46%
inhibition at 200 µM [2, 4]: 56%
Molecule: Cc1ccc(-c2cccc(C(Cc3cc(Cl)c4cccnc4c3O)NC(=O)COc3ccc(C(C)(C)C)cc3)c2)s1 (stereo not shown)

inhibition at 200 µM [1, 5]: 56%
IC50 [2, 6]: 20 µM
Molecule: O=C(COc1ccccc1)NC(Cc1cc(Cl)c2cccnc2c1O)c1cccc(CN2CCCC2)c1 (stereo not shown)

inhibition at 66.7 µM [1, 5]: 50%
inhibition at 22 µM [2, 4]: 49%
Molecule: CC(C)(Oc1ccc(Cl)cc1)C(=O)NC(Cc1cc(Cl)c2cccnc2c1O)c1cccc(CN2CCCC2)c1 (stereo not shown)

IC50 [1, 3]: 16.8 µM
inhibition at 200 µM [2, 4]: 68%
Molecule: CN(C)Cc1ccc(C(Cc2cc(Cl)c3cccnc3c2O)NC(=O)COc2ccccc2)o1 (stereo not shown)

inhibition at 200 µM [1, 5]: 56%
inhibition at 200 µM [2, 4]: 49%
Molecule: CC(C)C(=O)NC(Cc1cc(Cl)c2cccnc2c1O)c1ccc(CN(C)C)o1 (stereo not shown)

IC50 ([1]; read-out: Agg1 IC50): 66 to 200 µM
IC50 ([2]; read-out: Agg2 IC50): 3.3 µM
Molecule: O=C(COc1ccc(-c2ccccc2)cc1)NC(c1ccccc1Cl)c1cc(Cl)c2cccnc2c1O (stereo not shown) [2-(biphenyl-4-yloxy)-N-[(5-chloro-8-hydroxyquinolin-7-yl)(2-chlorophenyl)methyl]acetamide]

IC50 ([1]; read-out: Agg1 IC50): 7.4 to 20 µM
IC50 ([2]; read-out: Agg2 IC50): 2 µM
Molecule: O=C(COc1ccc(-c2ccccc2)cc1)NC(c1ccccc1)c1cc(Cl)c2cccnc2c1O (stereo not shown) [2-(biphenyl-4-yloxy)-N-[(5-chloro-8-hydroxyquinolin-7-yl)(phenyl)methyl]acetamide]

IC50 ([1]; read-out: Agg1 IC50): 11.4 µM
Molecule: O=C(COc1ccccc1)NC(c1ccccc1Cl)c1cc([N+](=O)[O-])c2cccnc2c1O (stereo not shown) [N-[(2-chlorophenyl)(8-hydroxy-5-nitroquinolin-7-yl)methyl]-2-phenoxyacetamide]

inhibition at 22.2 µM ([1]; @ 22200 nM, read-out: Agg1 %): 46%
Molecule: O=C(COc1ccccc1)NC(c1ccccc1F)c1cc(Cl)c2cccnc2c1O (stereo not shown) [N-[(5-chloro-8-hydroxyquinolin-7-yl)(2-fluorophenyl)methyl]-2-phenoxyacetamide]

IC50 ([1]; read-out: Agg1 IC50): > 20 µM
Molecule: O=C(COc1ccccc1)NC(c1ccc([N+](=O)[O-])cc1)c1cc(Cl)c2cccnc2c1O (stereo not shown) [N-[(5-chloro-8-hydroxyquinolin-7-yl)(4-nitrophenyl)methyl]-2-phenoxyacetamide]

IC50 ([1]; read-out: Agg1 IC50): > 22 µM
Molecule: O=C(COc1ccccc1)NC(c1ccccc1)c1cc(Cl)c2cccnc2c1O (stereo not shown) [N-[(5-chloro-8-hydroxyquinolin-7-yl)(phenyl)methyl]-2-phenoxyacetamide]

IC50 ([1]; read-out: Agg1 IC50): 19.3 µM
Molecule: O=C(COc1ccccc1)NC(c1ccccc1)c1cc([N+](=O)[O-])c2cccnc2c1O (stereo not shown) [N-[(8-hydroxy-5-nitroquinolin-7-yl)(phenyl)methyl]-2-phenoxyacetamide]

inhibition at 22 µM ([1]; @ 22000 nM, read-out: Agg1 %): 52%
Molecule: C=CCOc1ccc(C(NC(=O)COc2ccccc2)c2cc(Cl)c3cccnc3c2O)cc1 (stereo not shown) [N-[[4-(allyloxy)phenyl](5-chloro-8-hydroxyquinolin-7-yl)methyl]-2-phenoxyacetamide]

IC50 [2, 7]: 0.774 µM
Molecule: N-[(5-chloro-8-hydroxyquinolin-7-yl)(4-methoxyphenyl)methyl]-2-(4-methylphenoxy)acetamide [Example 80]

IC50 [2, 7]: 3.22 µM
Molecule: N-[(8-hydroxyquinolin-7-yl)(4-methoxyphenyl)methyl]-2-(4-phenoxyphenoxy)acetamide [Example 76]
